According to PubChem BioAssay (NCI):
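Five concentrations, 48 hours, 96-well plates. The concentration for 50% growth inhibition is given as GI50. TGI: total growth inhibition.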

Columns and labels:
Assay in all cases: NCI anticancer screen, dose series, 48 h
SK-OV-3 ovarian = tested on: SK-OV-3 ovarian
LOX IMVI melanoma = tested on: LOX IMVI melanoma
CCRF-CEM leukemia = tested on: CCRF-CEM leukemia
MOLT-4 leukemia = tested on: MOLT-4 leukemia
NCI-H226 lung = tested on: NCI-H226 lung
RPMI-8226 leukemia = tested on: RPMI-8226 leukemia
COLO 205 colon = tested on: COLO 205 colon
NCI-H23 lung = tested on: NCI-H23 lung
NCI-H522 lung = tested on: NCI-H522 lung
UACC-257 melanoma = tested on: UACC-257 melanoma

Row | Compound | GI50 (SK-OV-3 ovarian) [µM] | TGI (SK-OV-3 ovarian) [µM] | GI50 (LOX IMVI melanoma) [µM] | TGI (LOX IMVI melanoma) [µM] | GI50 (CCRF-CEM leukemia) [µM] | TGI (CCRF-CEM leukemia) [µM] | GI50 (MOLT-4 leukemia) [µM] | TGI (MOLT-4 leukemia) [µM] | GI50 (NCI-H226 lung) [µM] | TGI (NCI-H226 lung) [µM] | GI50 (RPMI-8226 leukemia) [µM] | TGI (RPMI-8226 leukemia) [µM] | GI50 (COLO 205 colon) [µM] | TGI (COLO 205 colon) [µM] | GI50 (NCI-H23 lung) [µM] | TGI (NCI-H23 lung) [µM] | GI50 (NCI-H522 lung) [µM] | TGI (NCI-H522 lung) [µM] | GI50 (UACC-257 melanoma) [µM] | TGI (UACC-257 melanoma) [µM]
1 | Cc1cc(C)c(Cn2cnc3c(Cl)ncnc32)c(C)c1CCl | 53.7 | > 100 | 0.652 | 8.69 | 24.9 | 95.2 | 23.3 | 63.4 | > 100 | > 100 | 24.4 | > 100 | 79.1 | > 100 | 90.7 | > 100 | > 100 | > 100 | – | –
2 | O=Cc1ccc(-c2ccc(-c3nc4ccccc4o3)cc2)o1 | 41.9 | > 100 | 23 | 60.2 | > 100 | > 100 | 52 | > 100 | 17.9 | > 100 | – | – | 46.9 | > 100 | 31.8 | > 100 | 24.4 | 59.3 | 92.3 | > 100
3 | Cc1cn2c(/C=N/N=C(N)N)c(-c3cccs3)nc2s1 | 17.5 | 37.6 | – | – | 1.34 | 3.24 | 2.37 | 4.65 | 4.18 | 18.9 | 1.48 | 3.5 | 8.16 | 69.4 | 11.7 | 24 | 16.9 | 47.9 | 2.54 | 6.14
4 | SCCSCCCSCCS | – | > 100 | – | > 100 | – | 41.5 | – | 31.2 | – | – | – | – | – | > 100 | – | > 100 | – | > 100 | – | > 100
5 | CCCN(CCCC(NC(C)=O)C(=O)NCc1ccccc1)C(=O)NCCCl (stereo unspecified) | – | – | – | – | – | > 100 | – | > 100 | – | > 100 | – | > 100 | – | > 100 | – | > 100 | – | > 100 | – | > 100
6 | COc1cc(CNc2ccccc2C(=O)N2CCN(C(=O)c3cc(-c4cc(OC)c(OC)c(OC)c4)n4nc(-c5ccccc5)cc4n3)CC2)cc(OC)c1OC | 4.42 | 38.4 | 4.86 | > 100 | – | – | 3.32 | > 100 | 4.44 | 59.4 | – | – | 4.1 | 15.4 | 4.96 | > 100 | 2.22 | > 100 | 4.97 | > 100
7 | O=c1[nH]c2cc(Cl)ccc2nc1/C(=N\O)C(O)c1ccc([N+](=O)[O-])cc1 (stereo unspecified) | – | > 100 | – | > 100 | – | > 100 | – | > 100 | – | – | – | > 100 | – | > 100 | – | – | – | – | – | > 100
8 | OCC(O)c1nc2ccc3[nH]ncc3c2c2c1CCCC2 (stereo unspecified) | 2.23 | > 50 | 1.1 | 3.85 | 1.62 | > 50 | 1.56 | > 50 | 0.971 | 2.83 | – | – | 1.23 | 3.43 | 1.07 | 2.46 | 1.5 | 9.87 | 1.8 | > 50
9 | O=[N+]([O-])C1Cc2ccccc2OC1c1ccccc1 (stereo unspecified) | – | > 100 | – | 31.9 | – | > 100 | – | 70.7 | – | > 100 | – | – | – | > 100 | – | > 100 | – | > 100 | – | > 100
10 | CN(Cc1cc(Cl)cc(Cl)c1)CC(C(=O)c1ccccc1)c1ccccc1 (stereo unspecified) | – | > 100 | – | 5.91 | – | – | – | – | – | 22.4 | – | > 100 | – | 16.3 | – | 7.06 | – | 4.39 | – | 14.9
11 | CC(C)(C)C(=O)OCC1CCC(n2cnc3c(=O)[nH]c(N)nc32)O1 (stereo unspecified) | – | > 100 | – | > 100 | – | > 100 | – | – | – | > 100 | – | > 100 | – | > 100 | – | > 100 | – | – | – | > 100
12 | N#C/C(=C1\SC(N=Nc2ccccc2)C(=O)N1c1ccccc1)c1nc2ccccc2[nH]1 (stereo unspecified) | – | > 100 | – | > 100 | – | > 100 | – | > 100 | – | > 100 | – | – | – | > 100 | – | > 100 | – | > 100 | – | > 100
13 | Cn1c(=O)c2nc(-c3ccc(Cl)cc3)oc2n(C)c1=O | – | – | – | > 100 | – | > 100 | – | > 100 | – | > 100 | – | > 100 | – | – | – | > 100 | – | > 100 | – | > 100
14 | CCC(CNc1cc(OC)cc2cccnc12)NC1CCCCC1 (stereo unspecified) | > 100 | > 100 | 28.6 | > 100 | – | – | 36 | > 100 | 86 | > 100 | – | – | 11.3 | 24.6 | 51.3 | > 100 | – | – | 41.1 | > 100
15 | CC(=O)[CH-]C(=O)c1ccccc1.CC(=O)[CH-]C(=O)c1ccccc1.CCOCC[O-].CCOCC[O-].[Ti+4] | 25.2 | 74.9 | 37.8 | > 100 | – | – | 10.4 | 56.5 | 5.55 | 22.6 | 18 | 58.7 | – | – | – | – | 17 | 36.5 | 33.8 | > 100
16 | O=c1c(Cl)c(Cl)c(=O)c2sc3cc(Cl)ccc3[nH]c1=2 | – | > 100 | – | – | – | – | – | 14.5 | – | > 100 | – | 17.2 | – | > 100 | – | > 100 | – | 35.2 | – | 35.3
17 | Cc1cc(N2CCSCC2)nc(NC2CCCC(Nc3ccnc4cc(Cl)ccc34)C2)n1 (stereo unspecified) | 1.98 | 4.22 | – | – | 2.62 | 10.9 | 1.55 | 5.34 | 3.2 | 11 | 1.64 | 4.39 | – | – | 2.55 | 7.99 | – | – | 2.14 | 4.13
18 | O=Cc1cccc2c1Oc1c(cccc1C(=O)O)S2 | – | > 100 | – | > 100 | – | – | – | 68.1 | – | > 100 | – | 63.3 | – | 55.6 | – | > 100 | – | > 100 | – | > 100
19 | CN(C)C=C1C(Cl)=C(C=O)CC(C=O)=C1Cl | – | 79.7 | – | 6.07 | – | 10.6 | – | 10.2 | – | – | – | 7.2 | – | 30.6 | – | 37.1 | – | 4.14 | – | 30.8
